# Experimental data from patent US9932543B2, “Bacterial spore compositions for industrial uses” (priority 2014, dated 2018).
# Bridge positions count the residues as written; N and C are the ends. Square brackets hold non-standard residues; d marks the D form. Peptide text beside a SMILES is read from it. * marks the point of attachment. Ileψ(thiazoline)Cys = CC[C@H](C)[C@H](N)C1=N[C@H](C(=O)*)CS1; dOrn = NCCC[C@@H](N)C(=O)O
# Tested on: Eimeria maxima and Clostridium perfringens
# Type: in vivo, Cobb 500 Chicks (Gallus gallus domesticus)
# Conditions: infected chickens
smiles,measurement,setting,value
"CC[C@H](C)[C@H](N)C1=N[C@H](C(=O)N[C@@H](CC(C)C)C(=O)N[C@H](CCC(=O)O)C(=O)N[C@H](C(=O)N[C@H]2CCCCNC(=O)[C@H](CC(N)=O)NC(=O)[C@@H](CC(=O)O)NC(=O)[C@H](Cc3cnc[nH]3)NC(=O)[C@@H](Cc3ccccc3)NC(=O)[C@H]([C@@H](C)CC)NC(=O)[C@@H](CCCN)NC2=O)[C@@H](C)CC)CS1 [Treatment Group 5, Bacitracin] ({Ileψ(thiazoline)Cys}-L[dE]IK[dOrn]I[dF]H[dD]N; lactam 4-C)",Weight Gain Day 0-28,,0.811a kg
same,Weight gain over the infected negative control,Day 0-28,significant increase in weight gain
same,Mortality,Day 28,3.1b %
same,Lesion Score (0-3),"Day 28, 0 normal, 3 most severe",0.5b
same,Feed Conversion Day 0-28,kg of food per kg of body weight,1.585c
